Laboratory results: US20050118678A1, “Modified polypeptides with therapeutic activity and methods of use” (priority 2003, published 2005)
Residues, ends and D or L forms follow the SMILES beside them. No end group written: not given here. *: point of attachment. Stearoyl = CCCCCCCCCCCCCCCCCC(=O)*; Lauroyl = CCCCCCCCCCCC(=O)*

Key:
S. pyogenes Eaton = details: pH 7
bacteria = assay: Example 3 antibacterial activity of lauric acid conjugates; assay type: cell-based; details: lauric acid conjugate vs unconjugated peptide
Excerpt: The hemolytic activity of the KAK and AKK peptides and conjugates was low. […] Fatty acid conjugation will improve the usefulness of peptides as antimicrobial agents by enhancing their ability to form secondary structures upon interacting with the bacterial membranes.

E. coli 055:B5 LPS = assay: Limulus amoebocyte lysate assay for LPS neutralization; assay type: biochemical; details: for IC50: 0.04 unit E. coli 055:B5 LPS, chromogenic QCL-1000 kit, read-out: LPS Binding (IC50); for LPS binding activity, fold higher than the SC4 peptide: relative to SC4
Protocol: Limulus amoebocyte lysate assay for lipopolysaccharide (LPS) neutralization. The ability of SC4 peptide and amphiphiles to neutralize endotoxin was measured using the chromogenic QCL-1000 kit from BioWhittaker, Inc. (Walkersville, Md). This method is quantitative for Gram-negative bacterial endotoxin (LPS) and uses peptide inhibition of LPS-mediated activation of a proenzyme as a measure of activity (Young et al., J. Clin. Invest. 51, 1790-1797 (1972)). Peptides of the appropriate concentration were mixed with Limulus amoebocyte lysate, 0.04 unit (0.01 nanogram (ng)) of E. coli 055:B5 LPS (SIGMA), and a colorless synthetic substrate (Ac-Ile-Glu-Ala-Arg-pNA) (SEQ ID NO: 18). Peptide binding to LPS was determined by monitoring enzymatic conversion of the substrate to yellow p-nitroaniline (pNA) via absorption at 410 nm. Endotoxin concentration was determined from the initial rate of enzyme activation. IC50 (concentration displaying 50% inhibition) values for LPS binding were determined by fitting to a dose-response curve.

E. coli J96 = details: J96, pH 7
P. aeruginosa Type I = details: pH 7
[1] = system: drug-resistant strains of S. aureus (W73134 and M49780); assay: Example 2 antibacterial effect on drug-resistant strains; assay type: cell-based; details: W73134 and M49780, FIG. 15 and 16
S. pyogenes Wilson = details: pH 7
S. aureus MN8 = details: MN8, pH 7
S. aureus MNHO = details: pH 7
E. coli IA2 = details: IA2, pH 7
B. anthracis = details: cell survival by optical density at 650 nm
human red blood cells = details: for Hemolysis (LD50): red cells of human, 1 h
[2] = system: MN8, Hoch, Knutson, FR1722, and RN6390; assay: Example 2 antibacterial effect on five Gram-positive strains; assay type: cell-based; details: FIG. 10-14
[3] = system: erythrocytes (hemolytic activity); details: cited from earlier work

Compound	Hemolytic activity (eukaryotic cell)	Bactericidal Activity (LD50) S. pyogenes Eaton (S. pyogenes Eaton)	Bactericidal Activity (LD50) S. aureus M49780 (S. aureus M49780)	Bactericidal Activity (LD50) E. coli J96 (E. coli J96)	Bactericidal Activity (LD50) P. aeruginosa Type I (P. aeruginosa Type I)	Bactericidal Activity (LD50) S. pyogenes Wilson (S. pyogenes Wilson)	Bactericidal Activity (LD50) S. aureus W73134 (S. aureus W73134)	Bactericidal Activity (LD50) S. aureus MN8 (S. aureus MN8)	Bactericidal Activity (LD50) S. aureus MNHO (S. aureus MNHO)	Bactericidal Activity (LD50) E. coli IA2 (E. coli IA2)	Bactericidal Activity (LD50) B. anthracis (B. anthracis)	Hemolysis (LD50) (human red blood cells)	also measured
C[C@H](NC(=O)[C@H](C)NC(=O)[C@H](CCCCN)NC(=O)[C@H](C)NC(=O)[C@H](C)NC(=O)[C@H](CCCCN)NC(=O)[C@H](CCCCN)NC(=O)[C@H](C)NC(=O)[C@H](C)NC(=O)[C@H](CCCCN)NC(=O)[C@H](C)NC(=O)[C@H](C)NC(=O)[C@H](CCCCN)NC(=O)[C@H](CCCCN)NC(=O)[C@H](C)NC(=O)[C@H](C)NC(=O)CNC(=O)[C@@H](N)Cc1ccc(O)cc1)C(=O)O [AKK, YGAA[KKAAKAA](2), reference compound] (H-YGAAKKAAKAAKKAAKAA-OH)	low												
CCCCCCCCCCCC(=O)N[C@@H](CCCCN)C(=O)N[C@@H](CC(C)C)C(=O)N[C@@H](Cc1ccccc1)C(=O)N[C@@H](CCCCN)C(=O)N[C@@H](CCCNC(=N)N)C(=O)N[C@@H](Cc1c[nH]cn1)C(=O)N[C@@H](CC(C)C)C(=O)N[C@@H](CCCCN)C(=O)N[C@@H](Cc1c[nH]c2ccccc12)C(=O)N[C@@H](CCCCN)C(=O)N[C@H](C(=O)N[C@H](C(N)=O)[C@@H](C)CC)[C@@H](C)CC [C12-SC4] (Lauroyl-KLFKRHLKWKII-NH2)		0.066 µM	0.66 µM	0.077 µM	0.035 µM	0.16 µM	0.62 µM	0.68 µM	0.34 µM	0.079 µM	3.25 µM	6.2 µM	Antimicrobial activity relative to unconjugated peptide (bacteria): increased antimicrobial activity; IC50 (E. coli 055:B5 LPS): 230 nM; LPS binding activity, fold higher than the SC4 peptide (E. coli 055:B5 LPS): approximately 3 fold; Change in hemolytic activity on fatty acid conjugation (eukaryotic cell): large increase in hemolytic activity; Killing of drug-resistant S. aureus strains [1]: killed both drug-resistant strains
CCCCCCCCCCCCCCCCCC(=O)N[C@@H](CCCCN)C(=O)N[C@@H](CC(C)C)C(=O)N[C@@H](Cc1ccccc1)C(=O)N[C@@H](CCCCN)C(=O)N[C@@H](CCCNC(=N)N)C(=O)N[C@@H](Cc1c[nH]cn1)C(=O)N[C@@H](CC(C)C)C(=O)N[C@@H](CCCCN)C(=O)N[C@@H](Cc1c[nH]c2ccccc12)C(=O)N[C@@H](CCCCN)C(=O)N[C@H](C(=O)N[C@H](C(N)=O)[C@@H](C)CC)[C@@H](C)CC [C18-SC4] (Stearoyl-KLFKRHLKWKII-NH2)		0.11 µM	0.24 µM	0.23 µM	0.042 µM	0.13 µM	0.10 µM	0.11 µM	0.068 µM	0.19 µM	2.23 µM	1.9 µM	IC50 (E. coli 055:B5 LPS): 82 nM; LPS binding activity, fold higher than the SC4 peptide (E. coli 055:B5 LPS): ~6 fold; Killing of drug-resistant S. aureus strains [1]: killed both drug-resistant strains; Increase in antibacterial effect relative to SC-4 [2]: ten to twenty fold increases; Hemolytic activity, fold more hemolytic than C12-SC4 (human red blood cells): roughly 3 fold
C[C@H](NC(=O)[C@H](CCCCN)NC(=O)[C@H](C)NC(=O)[C@H](C)NC(=O)[C@H](CCCCN)NC(=O)[C@H](C)NC(=O)[C@H](CCCCN)NC(=O)[C@H](C)NC(=O)[C@H](C)NC(=O)[C@H](CCCCN)NC(=O)[C@H](C)NC(=O)[C@H](C)NC(=O)[C@H](CCCCN)NC(=O)[C@H](C)NC(=O)[C@H](CCCCN)NC(=O)[C@H](C)NC(=O)CNC(=O)[C@@H](N)Cc1ccc(O)cc1)C(=O)O [KAK, YG[AKAKAAKA](2), reference compound] (H-YGAKAKAAKAAKAKAAKA-OH)	low												
CC[C@H](C)[C@H](NC(=O)[C@@H](NC(=O)[C@H](CCCCN)NC(=O)[C@H](Cc1c[nH]c2ccccc12)NC(=O)[C@H](CCCCN)NC(=O)[C@H](CC(C)C)NC(=O)[C@H](Cc1c[nH]cn1)NC(=O)[C@H](CCCNC(=N)N)NC(=O)[C@H](CCCCN)NC(=O)[C@H](Cc1ccccc1)NC(=O)[C@H](CC(C)C)NC(=O)[C@@H](N)CCCCN)[C@@H](C)CC)C(N)=O [SC4, KLFKRHLKWKII, reference compound] (H-KLFKRHLKWKII-NH2)		>2.0 µM	2.0 µM	0.12 µM	0.028 µM	>1.0 µM	2.3 µM	1.3 µM	2.3 µM	0.21 µM	>15 µM	>375 µM	Concentration below which no hemolytic activity is shown [3]: ≥ 100 µM; Concentration up to which little hemolytic activity was demonstrated (human red blood cells): > 400 µM
conjugated AKK: AKK peptide YGAA[KKAAKAA](2) conjugated with lauric acid (YGAAKKAAKAA; numbers in words are those of the source; also: dimer [KKAAKAA](2), lauric acid conjugate, place not given here)	low												Antimicrobial activity relative to unconjugated peptide (bacteria): increased antimicrobial activity
conjugated KAK: KAK peptide YG[AKAKAAKA](2) conjugated with lauric acid (YGAKAKAAKA; numbers in words are those of the source; also: dimer [AKAKAAKA](2), lauric acid conjugate, place not given here)	low												
